Values of other authors in US20100119592A1, “CYTARABINE FOR TREATMENT OF GLIOMA” (priority 2006, published 2010).

Test system: proliferating mammalian cells in culture
Conditions: wide variety of proliferating mammalian cells in culture

SMILES: Nc1ccn([C@@H]2O[C@H](CO)[C@@H](O)[C@@H]2O)c(=O)n1 [Cytarabine, 4-amino-1-beta-D-arabinofuranosyl-2(1H)-pyrimidinone]
- cytotoxicity: cytotoxic
